The target in one data set is mGFP-K-RASG12V (Homo sapiens (Human), UniProt P01116, G12V). Briefly: K-Ras mislocalization assay (confocal microscopy, Manders coefficient). In kind it is cell-based. Further details: key to Emax: Manders coefficient: fraction of mCherry-CAAX co-localizing with GFP-K-Ras. Conditions: for IC50 / Emax: MDCK cells; for IC50: 48 h treatment, read-out: IC50 (μM), KRASG12V mislocalization; for Emax: maximal effect, Manders coefficient, 48 h. The method, then: Madine Darby Canine Kidney epithelial cells (MDCK) stably co-expressing mGFP-tagged full length oncogenic mutant K-Ras (GFP—K-RASG12V) or mGFP-LactC2 (peptide probe for phosphatidylserine) and mCherry-tagged to the amino acids 179-189 of H-RasC181S, C184S (mCherry-CAAX, localizes primarily to endomembranes) were grown in DMEM-high glucose/sodium pyruvate/10% FBS. The medium was supplemented with 1× Penicillin/Streptomycin for fluorescence microscopy assays, to avoid any microbial contamination from the test compounds added. KLE and Hec50 cells were maintained in DMEM-F-12 medium supplemented with 10% FBS. Hec-1A and Hec-1B cells were grown in McCoy's 5a medium supplemented with 10% FBS. ESS-1 cells were grown in RPMI 1640 medium supplemented with 20% FBS. MPanc96 cells were grown in DMEM supplemented with 10% FBS, MiaPaCa-2 cells in DMEM supplemented with 10% FBS and 2.5% horse serum and all other cell lines were grown in RPMI 1640 supplemented with 10% FBS. All cancer cell media were supplemented with ×Penicillin/Streptomycin. All cell lines were grown at 37° C. with 5% CO2.
MDCK co-expressing GFP—K-RASG12V or LactC2 and mCherry-CAAX were grown on coverslips, treated with 0.1% vehicle (DMSO) or various concentrations of drugs for 48 h, and fixed with 4% paraformaldehyde. The coverslips were mounted in mowiol and imaged by confocal microscopy (Nikon A1) using a 60× objective. Using ImageJ software v1.42q, images were converted to 8-bit, and a threshold to a control pixel of each image was set. As a measure of K-Ras/LactC2 mislocalization, the fraction of mCherry-CAAX co-localizing with mGFP-K-RASG12V was calculated using a Manders coefficient plugin downloaded from Wright Cell Image Facility. The fraction of mCherry-CAAX co-localizing with mGFP-RASG12V (Mander's coefficient) is proportional to K-Ras mislocalization.

The test system of data set [1] is MDCK cells co-expressing GFP-K-RASG12V and mCherry-CAAX. Nature of the data set: Cytotoxicity in mislocalization screen (death of all cells in well). Conditions: drug caused death of all cells in well at 30 μM.

From US12043602B2, “Fendiline derivatives” (The Board of Regents of the University of Texas System, priority 2019, dated 2024) come the findings set out here.

Usually IC50 stands for the concentration that gives 50% inhibition. Consider `OC[C@H](c1ccccc1)N(CC=C(c1ccccc1)c1ccccc1)CC=C(c1ccccc1)c1ccccc1` [AVA72, reference compound], for which, at mGFP-K-RASG12V, the IC50 was 0.17 µM and the Emax was determined as 0.764. In addition, the “Cytotoxic at 30 μM” value in data set [1] is recorded as “No”.
On to `C=CCN(CC=C(c1ccccc1)c1ccccc1)[C@H](C)c1ccc(OC)cc1` [NY0217, (R)-N-allyl-N-(1-(4-methoxyphenyl)ethyl)-3,3-diphenylprop-2-en-1-amine], for which, on mGFP-K-RASG12V, the IC50 was determined as 13 µM and the Emax is 0.47. For the same compound, the “Cytotoxic at 30 μM” value in data set [1] is “No”.
Take `COc1ccc([C@@H](C)N(C)CC=C(c2ccccc2)c2ccccc2)cc1` [NY0218, (R)-N-(1-(4-methoxyphenyl)ethyl)-N-methyl-3,3-diphenylprop-2-en-1-amine]: at mGFP-K-RASG12V, the IC50 is 3.3 µM and the Emax amounted to 0.75 ± 0.01. Besides, on mGFP-K-RASG12V (in comparison with 7), the “fold loss of potency to mislocalize KRAS” value was 7 fold. The “Cytotoxic at 30 μM” value in data set [1] is given as “No”.
For the compound `COc1ccc(CCN(CC=C(c2ccccc2)c2ccccc2)CC=C(c2ccccc2)c2ccccc2)cc1` [NY0220, N-(3,3-diphenylallyl)-N-(4-methoxyphenethyl)-3,3-diphenylprop-2-en-1-amine], on mGFP-K-RASG12V, the IC50 was found to be 3.65 µM and the Emax came out at 0.605. Besides, the “Cytotoxic at 30 μM” value in data set [1] was “No”.
On to `C(CN1CCc2ccccc2C1)=C(c1ccccc1)c1ccccc1` [NY0221, 2-(3,3-diphenylallyl)-1,2,3,4-tetrahydroisoquinoline], for which, on mGFP-K-RASG12V, the IC50 was 0.65 µM and the Emax came out at 0.585. Moreover, the “Cytotoxic at 30 μM” value in data set [1] was “No”.
On to `COc1ccc([C@@H](C)N(CC=C(c2ccccc2)c2ccccc2)C(C)=O)cc1` [NY0222, (R)-N-(3,3-diphenylallyl)-N-(1-(4-methoxyphenyl)ethyl)acetamide], for which, at mGFP-K-RASG12V, the 50% inhibitory concentration (IC50) is 0.25 µM and the Emax amounted to 0.587. For the same compound, in data set [1], the “Cytotoxic at 30 μM” value was “Yes”.
Regarding `COc1ccc([C@@H](C)N(CC=C(c2ccccc2)c2ccccc2)S(C)(=O)=O)cc1` [NY0223, (R)-N-(3,3-diphenylallyl)-N-(1-(4-methoxyphenyl)ethyl)methanesulfonamide], at mGFP-K-RASG12V, the IC50 amounted to 8.45 µM and the Emax was determined as 0.785. For the same compound, the “Cytotoxic at 30 μM” value in data set [1] is reported as “No”.
Regarding `COc1ccc(NC(=O)N(CC=C(c2ccccc2)c2ccccc2)[C@H](C)c2ccc(OC)cc2)cc1` [NY0224, (R)-1-(3,3-diphenylallyl)-3-(4-methoxyphenyl)-1-(1-(4-methoxyphenyl)ethyl)urea], on mGFP-K-RASG12V, the IC50 was 0.64 µM and the Emax stood at 0.622. Also, the “Cytotoxic at 30 μM” value in data set [1] is reported as “No”.
On to `COc1ccc([C@@H](C)N(CC=C(c2ccccc2)c2ccccc2)C(=O)Oc2ccccc2)cc1` [NY0225, (R)-phenyl (3,3-diphenylallyl)(1-(4-methoxyphenyl)ethyl)carbamate], for which, at mGFP-K-RASG12V, the IC50 turned out to be 0.43 µM and the Emax turned out to be 0.626. Also, the “Cytotoxic at 30 μM” value in data set [1] is “Yes”.
With `COC(=O)CN(CC=C(c1ccccc1)c1ccccc1)[C@H](C)c1ccc(OC)cc1` [NY0228, (R)-methyl 2-((3,3-diphenylallyl)(1-(4-methoxyphenyl)ethyl)amino)acetate], the Emax on mGFP-K-RASG12V worked out at 0.705. Moreover, the “Cytotoxic at 30 μM” value in data set [1] is recorded as “No”.
On to `COc1ccc([C@@H](C)N(CC=C(c2ccccc2)c2ccccc2)CC(=O)O)cc1` [NY0229, (R)-2-((3,3-diphenylallyl)(1-(4-methoxyphenyl)ethyl)amino)acetic acid], for which, at mGFP-K-RASG12V, the IC50 amounted to 6.39 µM and the Emax came out at 0.522. Moreover, in data set [1], the “Cytotoxic at 30 μM” value is listed as “No”.
With `COc1ccc([C@@H](C)N(CC=C(c2ccccc2)c2ccccc2)CC(=O)N2CCN(C)CC2)cc1` [NY0232, (R)-2-((3,3-diphenylallyl)(1-(4-methoxyphenyl)ethyl)amino)-1-(4-methylpiperazin-1-yl)ethanone], at mGFP-K-RASG12V, the IC50 is 1.1 µM and the Emax came to 0.73 ± 0.02. Besides, in data set [1], the “Cytotoxic at 30 μM” value was “No”.
As to `COc1ccc([C@@H](C)N(CC=C(c2ccccc2)c2ccccc2)CC(=O)N2CCc3ccccc3C2)cc1` [NY0233, (R)-1-(3,4-dihydroisoquinolin-2(1H)-yl)-2-((3,3-diphenylallyl)(1-(4-methoxyphenyl)ethyl)amino)ethanone], on mGFP-K-RASG12V, the IC50 came out at 3.56 µM and the Emax stood at 0.522. Besides, the “Cytotoxic at 30 μM” value in data set [1] is “No”.
For `C#CCN(CC=C(c1ccccc1)c1ccccc1)[C@H](C)c1ccc(OC)cc1` [NY0234, (R)-N-(1-(4-methoxyphenyl)ethyl)-3,3-diphenyl-N-(prop-2-yn-1-yl)prop-2-en-1-amine], at mGFP-K-RASG12V, the IC50 was 21.9 µM and the Emax is recorded as 0.703. The “Cytotoxic at 30 μM” value in data set [1] is on record as “No”.
Taken in the same sequence, the figures for `C=CC(=O)N(CC=C(c1ccccc1)c1ccccc1)[C@H](C)c1ccc(OC)cc1` [NY0235, (R)-N-(3,3-diphenylallyl)-N-(1-(4-methoxyphenyl)ethyl)acrylamide] were 1.21 µM, 0.59 and “No”.
With `C(CN1CCCc2ccccc21)=C(c1ccccc1)c1ccccc1` [NY0237, 1-(3,3-diphenylallyl)-1,2,3,4-tetrahydroquinoline], on mGFP-K-RASG12V, the half-maximal inhibitory concentration (IC50) was 12.2 µM and the Emax is given as 0.79. Besides, in data set [1], the “Cytotoxic at 30 μM” value is on record as “No”.
For `COc1ccc([C@@H](C)N(CC=C(c2ccccc2)c2ccccc2)CCO)cc1` [NY0241, (R)-2-((3,3-diphenylallyl)(1-(4-methoxyphenyl)ethyl)amino)ethanol], at mGFP-K-RASG12V, the IC50 was found to be 0.2 µM. Also, the figures for the Emax on mGFP-K-RASG12V and at mGFP-K-RASG12V (listed as 11e) were 0.72 ± 0.03 and 0.72, respectively. Further, the “fold increase in KRAS mislocalization potency” value at mGFP-K-RASG12V (versus hit 7) turned out to be 2.5 fold. Moreover, the results for the “Cytotoxic at 30 μM” value in data set [1] and in data set [1] (listed as 11e) were “No” and “did not show any cytotoxic”, respectively.
For the compound `Fc1ccc2c(c1)CCCN2CC=C(c1ccccc1)c1ccccc1` [NY293, 1-(3,3-diphenylallyl)-6-fluoro-1,2,3,4-tetrahydroquinoline], on mGFP-K-RASG12V, the IC50 is 2.3 µM and the Emax turned out to be 0.910. In addition, in data set [1], the “Cytotoxic at 30 μM” value is listed as “No”.
On the same counts, the results for `CC1CCc2ccccc2N1CC=C(c1ccccc1)c1ccccc1` (stereo not drawn) [NY304, 1-(3,3-diphenylallyl)-2-methyl-1,2,3,4-tetrahydroquinoline] are 2.95 µM, 0.751 and “No”.
Taken in the same sequence, the figures for `C(CN1CCC(c2ccccc2)CC1)=C(c1ccccc1)c1ccccc1` [NY306, 1-(3,3-diphenylallyl)-4-phenylpiperidine] were 3.95 µM, 0.893 and “No”.
Regarding `C(CN1CCN(c2ccccc2)CC1)=C(c1ccccc1)c1ccccc1` [NY307, 1-(3,3-diphenylallyl)-4-phenylpiperazine], at mGFP-K-RASG12V, the IC50 stood at 4.2 µM and the Emax is 0.858. Further, in data set [1], the “Cytotoxic at 30 μM” value was “No”.
Taken in the same sequence, the figures for `COc1ccc([C@@H](C)N(CC=C(c2ccccc2)c2ccccc2)C(=O)C(C)F)cc1` (stereo partly drawn) [NY314, N-(3,3-diphenylallyl)-2-fluoro-N-((R)-1-(4-methoxyphenyl)ethyl)propanamide] were 1.69 µM, 0.842 and “No”.
